Assay results reported in patent publication US9708332B2, “Respiratory syncytial virus inhibitors” (MEDIVIR AB, priority 2013, dated 2017).

tested on: RSV (Long); test: RSV cytopathic effect (CPE)-based viral replication assay in HEp-2 cells; details: human respiratory syncytial virus, 72 h; HEp-2 cells infected with RSV Long at MOI 0.015, 3 days, cell viability by CellTiter-Glo; read-out: Ec50 (nM) Example A
Experimental: Compounds of the invention are initially tested in a cytopathic effect (CPE)-based viral replication assay using immortalized cells and a laboratory strain of RSV (Long). This assay evaluates the ability of a compound to inhibit viral replication. Assay plates are prepared by seeding 2,500 HEp-2 cells (ATCC) per well of a 384-well black clear-bottom plate (Greiner Bio-One) in 20 μL of assay media (defined as DMEM supplemented with 2% heat-inactivated fetal bovine serum and 1% Penicillin/Streptomycin). Assay plates are incubated overnight at 37° C. in an incubator containing 5% CO2. The following day, a 10-point serial dilution of test compound is prepared in DMSO. Compounds are subsequently diluted with assay media and 20 μL of diluted compound (containing 1.5% DMSO) is transferred to an assay plate for evaluation of antiviral activity. For the CPE assay, cells are infected at a MOI of 0.015 using 20 μL of RSV Long (ATCC) diluted in assay media. The DMSO concentration is constant throughout the assay plate, including the negative and positive controls. The assay plate is incubated for 3 days at 37° C. in an incubator containing 5% CO2. Cell viability is evaluated with the addition of 10 μL of CellTiter-Glo (ProMega). Luminescence is measured using an EnVision plate reader (Perkin Elmer). EC50 values are calculated using the raw data from the CPE assays, respectively.

Row | Structure (SMILES) | EC50
1 | O=c1n(Cc2nc(OCC3CCOC3)c3ccc(Cl)cc3n2)c2cnccc2n1C1CCS(=O)(=O)C1 (stereo not shown) [compound 1096] | 300 nM
2 | CN(Cc1cnn(C)c1)c1nc(Cn2c(=O)c3ccccc3n3ncc(C#N)c23)nc2ccccc12 [compound 1179] | 400 nM
3 | O=C1CCCN1CCOc1nc(Cn2c(=O)n(C3CC3)c3ccncc32)nc2cc(Br)ccc12 [compound 1081] | 280 nM
4 | O=c1n(Cc2nc(OCC3CCOC3)c3ccccc3n2)c2cccnc2n1C1CC1 (stereo not shown) [compound 1222] | 490 nM
5 | COc1cccc2c(=O)n(Cc3nc(N(C)Cc4cnn(C)c4)c4ccccc4n3)c3cc(C)nn3c12 [compound 1215] | 31 nM
6 | O=c1n(Cc2nc(OC3CCOC3)c3ccc(Cl)cc3n2)c2cccnc2n1C1CC1 (stereo not shown) [compound 1218] | 380 nM
7 | O=c1n(Cc2nc(OCCCO)c3ccccc3n2)c2cnccc2n1C1CC1 [Compound 1002] | 260 nM
8 | CS(=O)(=O)CCCOc1nc(Cn2c(=O)n(C3CC3)c3ccncc32)nc2cc(Cl)ccc12 [Compound 1065] | 43 nM
9 | N#Cc1ccc2nc(Cn3c(=O)n(C4CC4)c4ccncc43)nc(OCC3CCOC3)c2c1 (stereo not shown) [Compound 1036] | 140 nM
10 | Cc1cc2n(Cc3nc(OCC4CCOC4)c4ccccc4n3)c(=O)c3ccccc3n2n1 (stereo not shown) [compound 1070] | 16 nM
11 | Cc1cc2n(Cc3nc(NC(C)c4cnn(C)c4)c4ccccc4n3)c(=O)c3ccccc3n2n1 (stereo not shown) [compound 1180] | 1400 nM
12 | Cc1c(C#N)c(=O)n(Cc2nc(OC3CCOC3)c3ccccc3n2)c2ccccc12 (stereo not shown) [compound 1204] | 79 nM
13 | O=c1n(Cc2nc(OCC3CCOC3)c3c(Cl)cccc3n2)c2cnccc2n1C1CC1 (stereo not shown) [compound 1085] | 280 nM
14 | Cc1cc2n(Cc3nc(OCC4CCOC4)c4ccc(Br)cc4n3)c(=O)c3ccccc3n2n1 (stereo not shown) [compound 1047] | 1700 nM
15 | Cn1cc(-c2ccc3c(OCC4CCOC4)nc(Cn4c(=O)n(C5CC5)c5ccncc54)nc3c2)cn1 (stereo not shown) [Compound 1043] | 6400 nM
16 | Cc1cc2n(Cc3nc(N(C)Cc4cnn(C)c4)c4ccccc4n3)c(=O)c3ccccc3n2n1 [compound 1027] | 10 nM
17 | O=c1c2ccccc2n2nncc2n1Cc1nc(OC2CCOC2)c2ccccc2n1 (stereo not shown) [compound 1200] | 29 nM
18 | CCc1cc2n(Cc3nc(OC4CCOC4)c4ccccc4n3)c(=O)c3ccccc3n2n1 (stereo not shown) [compound 1199] | 8.8 nM
19 | Cc1cc(CN(C)c2nc(CN3C(=O)N(C4CC4)Cc4ccccc43)nc3ccccc23)on1 [compound 1164] | 1000 nM
20 | Cc1cc2n(Cc3nc(N(C)CC4CCOC4)c4ccccc4n3)c(=O)c3ccccc3n2n1 (stereo not shown) [compound 1140] | 26 nM
21 | Cc1cc2n(Cc3nc(OCC4CCOC4)c4cc(C#N)ccc4n3)c(=O)c3ccccc3n2n1 (stereo not shown) [Compound 1074] | 2.8 nM
22 | CN(Cc1cnn(C)c1)c1nc(Cn2c(=O)c3ccccc3n3cncc23)nc2ccccc12 [compound 1183] | 470 nM
23 | CN(Cc1cnn(C)c1)c1nc(Cn2c(=O)n(C3CC3)c3ccccc32)nc2ccccc12 [compound 1005] | 970 nM

Row | Structure (SMILES) | EC50
24 | O=c1n(Cc2nc(OCC3CCOC3)c3cc(Cl)ccc3n2)c2cnccc2n1C1CC1 (stereo not shown) [compound 1054] | 600 nM
25 | O=c1n(Cc2nc(OC3CCOC3)c3ccc(Cl)cc3n2)c2c[n+]([O-])ccc2n1C1CC1 (stereo not shown) [Compound 1104] | 130 nM
26 | O=c1n(Cc2nc(OCC3CCOC3)c3cccc(Cl)c3n2)c2cnccc2n1C1CC1 (stereo not shown) [compound 1090] | 710 nM
27 | O=c1n(Cc2nc(OCCCO)c3ccccc3n2)c2ccccc2n1C1CC1 [Compound 1069] | 1200 nM
28 | N#Cc1cc2ccccc2n(Cc2nc(OC3CCOC3)c3ccccc3n2)c1=O (stereo not shown) [compound 1108] | 1600 nM
29 | O=c1n(Cc2nc(OC3CCOC3)c3ccccc3n2)c2cnccc2n1C1CC1 (stereo not shown) [compound 1206] | 110 nM
30 | Cc1ncc2n(Cc3nc(OC4CCOC4)c4ccccc4n3)c(=O)c3ccccc3n12 (stereo not shown) [compound 1097] | 93 nM
31 | O=c1n(Cc2nc(OC3CCOC3)c3ccc(Cl)cc3n2)c2ncccc2n1C1CC1 (stereo not shown) [compound 1219] | 200 nM
32 | O=c1n(Cc2nc(OCC3CCOC3)c3ccc(Cl)cc3n2)c2cnccc2n1C1CCOCC1 (stereo not shown) [compound 1095] | 380 nM
33 | O=c1n(Cc2nc(OCC3CCOC3)c3ccccc3n2)c2ncccc2n1C1CC1 (stereo not shown) [compound 1020] | 450 nM
34 | O=c1n(Cc2nc(OC3CCOC3)c3ccc(Cl)cc3n2)c2cnccc2n1C1CC1 (stereo not shown) [compound 1061] | 29 nM
35 | Cc1cc(CN(C)c2nc(Cn3c(=O)c4ccccc4c4ccccc43)nc3ccccc23)on1 [compound 1168] | 280 nM
36 | Cc1cc2n(Cc3nc(N(C)Cc4cnn(C)c4)c4ccccc4n3)c(=O)c3ccncc3n2n1 [compound 1212] | 15 nM
37 | O=c1n(Cc2nc(CCCCO)c3ccccc3n2)c2ccccc2n1C1CC1 [Compound 1016] | 1100 nM
38 | CN(CC1CCOC1)c1nc(Cn2ccc3nccn3c2=O)nc2ccccc12 (stereo not shown) [compound 1119] | 7700 nM
39 | Cc1ncn2c3ccccc3c(=O)n(Cc3nc(OC4CCOC4)c4ccccc4n3)c12 (stereo not shown) [compound 1100] | 25 nM
40 | Cc1cc(CN(C)c2nc(Cn3c(=O)n(C4CC4)c4ccncc43)nc3ccccc23)on1 [compound 1163] | 590 nM
41 | Cn1c(=O)n(Cc2nc(OCC3CCOC3)c3ccccc3n2)c2ccccc21 (stereo not shown) [compound 1142] | 480 nM
42 | O=c1n(Cc2nc(OC3COC3)c3ccc(Cl)cc3n2)c2cnccc2n1C1CC1 [compound 1068] | 63 nM
43 | O=c1n(Cc2nc(OC3CCOC3)c3ccccc3n2)c2ncccc2n1C1CC1 (stereo not shown) [compound 1221] | 170 nM
44 | Cc1cc2n(Cc3nc(OC4CCOC4)c4ccccc4n3)c(=O)c3ccccc3n2n1 (stereo not shown) [compound 1205] | 6.6 nM
45 | O=c1c2ccccc2n2nccc2n1Cc1nc(OC2CCOC2)c2ccccc2n1 (stereo not shown) [compound 1198] | 21 nM
46 | Cc1ccc2c(OCC3CCOC3)nc(Cn3c(=O)n(C4CC4)c4ccncc43)nc2c1 (stereo not shown) [Compound 1034] | 28 nM
